Laboratory results reported in publication PMC9207808 (ACS Chemical Biology, 2022).
Residues, ends and D or L forms follow the SMILES beside them.

Legend:
DocSTm [1] = assay: Differential scanning fluorimetry (thermal stabilisation of Doc); type: binding, S. Typhimurium; settings: for melting temperature shift ΔTm: DSF, DocSTm 5 μM, analyte 50 μM, Tm with analyte minus Tm of free DocSTm (42.9 ± 0.9 °C), SYPRO Orange, 20 mM K2HPO4, 50 mM (NH4)2SO4, pH 8.0, triplicate; for Average Tm / Tm: DocSTm 5 µM + 50 µM binder; for Average Tm: average of 3 replicates
Summary of the method: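 Tm values come from fitting the sigmoidal melt region to a Boltzmann function. Doc (5 μM final) was ramped 25–95 °C with SYPRO Orange (3× final) in pH 8.0 buffer of 20 mM K2HPO4 and 50 mM (NH4)2SO4; each condition in triplicate.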

DocSTm [2] = assay: Surface plasmon resonance binding to immobilised Doc; design: species or system S. Typhimurium; settings: for fold decrease in affinity (given as decrease/loss in Kd) compared with peptide 1: SPR Kd relative to wild-type peptide 1; for Half-life of the complex: t1/2 = ln2 / koff
Summary of the method: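 Binding constants are means ± SD of at least three replicates: steady-state Kd directly, or Kd calculated from kinetic kon and koff. Sensorgrams were double-referenced and fitted 1:1 after 80 s analyte injections (30 μL/min), either multicycle or single-cycle, over NTA-immobilised Doc. Running buffer was HEPES/500 mM NaCl/EDTA/Tween pH 8.0 at 22 °C.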

[3] = tested on: S. Typhimurium (14028) Δphd-doc::Km strains coexpressing DocSTm; assay: Growth rescue experiment in S. Typhimurium; type: cell-based; settings: coexpression of DocSTm (pBAD33, arabinose) and Phd construct (pCA24N, basal expression); OD600 over time, M9 minimal medium; average of three independent experiments
Description: The cotransformations above were also performed with an empty pBAD33 plasmid, as a control for the absence of DocSTm expression.
For the growth rescue experiment, overnight (1% tryptone, 0.5% yeast extract, 0.5% NaCl, 1% glucose, 100 μg/mL of carbenicillin, and 34 μg/mL of chloramphenicol) cultures of the generated S. Typhimurium strains were diluted to an OD600 of approximately 0.006 into fresh M9 minimal medium supplemented with 0.5% or 1% arabinose, 0.4% glycerol, 0.4% casamino acids, 100 μg/mL of carbenicillin, and 34 μg/mL of chloramphenicol. Cell growth at a given time was monitored at OD600 with a Genesys 140 Visible Spectrophotometer (Thermo Scientific).

DocSTm [4] = assay: Dot blot phosphorylation assay (EF-Tu phosphorylation by Doc); type: biochemical, S. Typhimurium; settings: α-pThr, DocSTm 1 μM, EF-TuSTm 3 μM, ATP 1 mM, inhibitor 10 μM to 5 nM (3-fold dilutions), 16 h at RT
Description: Samples were prepared to a final volume of 10 μL. […] Samples were incubated for 16 h at RT and subsequently spotted on a nitrocellulose membrane. Phosphorylated EF-Tu was detected by immunodecoration using a rabbit monoclonal antiphosphothreonine antibody (Abcam, ab218195) at 1:2000 dilution (1 h at 4 °C), followed by incubation with a goat antirabbit IgG (H+L) HRP conjugate antibody (Advansta) at 1:10 000 dilution (1 h at RT). Chemiluminescence was developed using the HRP Luminata kit (Merck, WBLUR0100) and captured by an ImageQuant LAS4000 Western blot imaging system (Cytiva).

| Molecule | melting temperature shift ΔTm (DocSTm [1]) | Average Tm (DocSTm [1]) | Tm (DocSTm [1]; replicate 1) | Tm (DocSTm [1]; replicate 2) | Tm (DocSTm [1]; replicate 3) | fold decrease in affinity (given as decrease/loss in Kd) compared with peptide 1 (DocSTm [2]) | Kd (DocSTm [2]; SPR multicycle, steady-state fit, replicate 1) | Kd (DocSTm [2]; SPR multicycle, steady-state fit, replicate 2) | Kd (DocSTm [2]; SPR multicycle, steady-state fit, replicate 3) | Kd (DocSTm [2]; SPR, multicycle kinetics, steady-state 1:1 fit, mean ± SD of 3 replicates) | rescue of Salmonella growth from DocSTm-induced growth inhibition (in words) [3] | Kd (DocSTm [2]; SPR kinetic fit, replicate 1) | Kd (DocSTm [2]; SPR kinetic fit, replicate 2) | Kd (DocSTm [2]; SPR kinetic fit, replicate 3) | koff × 10^-6 (DocSTm [2]; SPR, 1:1 kinetic fit, 22 °C, pH 8.0, mean ± SD of at least 3 replicates) | kon × 10^6 (DocSTm [2]; SPR, 1:1 kinetic fit, single-cycle kinetics (multicycle for PhdSTm1-73), 22 °C, pH 8.0, mean ± SD of at least 3 replicates) | Kd (DocSTm [2]; SPR, kinetic fit, KD calculated from mean koff and kon, SD propagated, 22 °C, pH 8.0) | Half-life of the complex (DocSTm [2]) | Half-life of the complex (DocSTm [2]; listed as PhdSTm1-73) | inhibition of EF-TuSTm phosphorylation by DocSTm (in words) (DocSTm [4]) |
| --- | --- | --- | --- | --- | --- | --- | --- | --- | --- | --- | --- | --- | --- | --- | --- | --- | --- | --- | --- | --- |
| CC[C@H](C)[C@H](NC(=O)[C@H](C)NC(=O)[C@H](C)NC(=O)[C@H](Cc1ccccc1)NC(=O)[C@H](CCC(=O)O)NC(=O)[C@H](CC(=O)O)NC(=O)[C@H](CC(=O)O)NC(=O)[C@H](CCSC)NC(=O)[C@H](Cc1c[nH]c2ccccc12)NC(C)=O)C(=O)N[C@@H](CCSC)C(=O)N[C@@H](C)C(=O)N[C@H](C(=O)N[C@@H](Cc1c[nH]cn1)C(=O)NCC(=O)N[C@@H](CC(N)=O)C(=O)N[C@@H](CCC(=O)O)C(=O)N[C@@H](C)C(=O)N[C@@H](CCCNC(=N)N)C(=O)N[C@@H](CCC(=O)O)C(=O)N[C@@H](CC(C)C)C(=O)N[C@@H](C)C(=O)N[C@@H](CC(=O)O)C(=O)N[C@@H](CCCCN)C(=O)O)C(C)C [peptide 14] (Ac-WMDDEFAAIMAVHGNEARELADK-OH; C-terminus assumed) | 14.3 ± 0.9 °C | 57.2 ± 0.2 °C | 57.4 °C | 57.2 °C | 57.0 °C | ~300 fold | 25 ± 0.5 nM | 23.9 ± 0.94 nM | 15.4 ± 2.13 nM | 21.4 ± 5.25 nM | unable to rescue growth |  |  |  |  |  |  |  |  |  |
| CC[C@H](C)[C@H](NC(=O)[C@H](C)NC(=O)[C@H](C)NC(=O)[C@H](Cc1ccccc1)NC(=O)[C@H](CCC(=O)O)NC(=O)[C@H](CC(=O)O)NC(=O)[C@H](CC(=O)O)NC(=O)[C@H](CCSC)NC(=O)[C@H](Cc1c[nH]c2ccccc12)NC(C)=O)C(=O)N[C@@H](C)C(=O)N[C@@H](C)C(=O)N[C@H](C(=O)N[C@@H](Cc1c[nH]cn1)C(=O)NCC(=O)N[C@@H](CC(N)=O)C(=O)N[C@@H](CCC(=O)O)C(=O)N[C@@H](CC(C)C)C(=O)N[C@@H](CCCNC(=N)N)C(=O)N[C@@H](CCC(=O)O)C(=O)N[C@@H](CC(C)C)C(=O)N[C@@H](C)C(=O)N[C@@H](CC(=O)O)C(=O)N[C@@H](CCCCN)C(=O)O)C(C)C [peptide 8] (Ac-WMDDEFAAIAAVHGNELRELADK-OH; C-terminus assumed) | 20.8 ± 1.0 °C | 63.7 ± 0.4 °C | 64.1 °C | 63.3 °C | 63.7 °C | 8- to 30 fold |  |  |  |  | fully rescued Salmonella growth after 18 h of culture | 0.67 nM | 0.611 nM | 0.485 nM | 1223 ± 504 ×10^-6 s-1 | 2.221 ± 1.307 ×10^6 M-1 s-1 | 0.553 ± 0.397 nM | 0.16 ± 0.6 h |  |  |
| PhdSTm: full-length wild-type Phd antitoxin protein of S. Typhimurium |  |  |  |  |  |  |  |  |  |  | prevented Doc-induced growth inhibition |  |  |  |  |  |  |  | 6.7 ± 1.4 h | no phosphorylation was detected |
